Measurements published in the supplement of paper PMC10307832.

Assays:
Experiment in all cases: relative viability (nuclei count vs DMSO), 5 days (fraction); higher = more cells survive
Dasatinib + Phenformin = compound: Cc1nc(Nc2ncc(C(=O)Nc3c(C)cccc3Cl)s2)cc(N2CCN(CCO)CC2)n1 [Dasatinib] + N=C(N)NC(=N)NCCc1ccccc1 [Phenformin] (partner 250 µM)
Outline: (§1)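 For relative viability, nuclei counts in treated wells were divided by those in vehicle wells. Lung cancer cell lines had been pin-tool dosed in 1536-well plates the day after seeding and cultured for 5 days, then fixed and stained in one step (final 0.05% Triton X-100, 1% formaldehyde, 1 ug/ml Hoechst) and imaged at 4×. Doses were one drug alone or a fixed anchor-drug dose plus five library-drug doses (not always all listed) in √10 steps, and values are duplicate-plate medians.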

XMD13-2 + Decitabine = compound: C1CC1C(=O)NC2=NNC3=C2C=CC(=C3)C4=CC(=CC=C4)C(=O)NC5CC5 [XMD13-2] + Nc1ncn([C@H]2C[C@H](O)[C@@H](CO)O2)c(=O)n1 [Decitabine] (partner 2 µM)
Outline: as §1

XMD13-2 + Palbociclib = compound: C1CC1C(=O)NC2=NNC3=C2C=CC(=C3)C4=CC(=CC=C4)C(=O)NC5CC5 [XMD13-2] + CC(=O)c1c(C)c2cnc(Nc3ccc(N4CCNCC4)cn3)nc2n(C2CCCC2)c1=O [Palbociclib] (partner 0.5 µM)
Outline: as §1

Dasatinib + Olaparib = compound: Cc1nc(Nc2ncc(C(=O)Nc3c(C)cccc3Cl)s2)cc(N2CCN(CCO)CC2)n1 [Dasatinib] + O=C(c1cc(Cc2n[nH]c(=O)c3ccccc23)ccc1F)N1CCN(C(=O)C2CC2)CC1 [Olaparib] (partner 8 µM)
Outline: as §1

| Cell Line | relative viability (Dasatinib + Phenformin; first compound 0.005 µM) | relative viability (Dasatinib + Phenformin; first compound 0.01581 µM) | relative viability (Dasatinib + Phenformin; first compound 0.05 µM) | relative viability (Dasatinib + Phenformin; first compound 0.1581 µM) | relative viability (Dasatinib + Phenformin; first compound 0.5 µM) | relative viability (XMD13-2 + Decitabine; first compound 0.05 µM) | relative viability (XMD13-2 + Decitabine; first compound 0.1581 µM) | relative viability (XMD13-2 + Decitabine; first compound 0.5 µM) | relative viability (XMD13-2 + Decitabine; first compound 1.581 µM) | relative viability (XMD13-2 + Decitabine; first compound 5 µM) | relative viability (XMD13-2 + Palbociclib; first compound 0.05 µM) | relative viability (XMD13-2 + Palbociclib; first compound 0.1581 µM) | relative viability (XMD13-2 + Palbociclib; first compound 0.5 µM) | relative viability (XMD13-2 + Palbociclib; first compound 1.581 µM) | relative viability (XMD13-2 + Palbociclib; first compound 5 µM) | relative viability (Dasatinib + Olaparib; first compound 0.005 µM) | relative viability (Dasatinib + Olaparib; first compound 0.01581 µM) | relative viability (Dasatinib + Olaparib; first compound 0.05 µM) | relative viability (Dasatinib + Olaparib; first compound 0.1581 µM) | relative viability (Dasatinib + Olaparib; first compound 0.5 µM) |
| --- | --- | --- | --- | --- | --- | --- | --- | --- | --- | --- | --- | --- | --- | --- | --- | --- | --- | --- | --- | --- |
| HARA | 0.422 | 0.39 | 0.472 | 0.273 | 0.0965 | 0.654 | 0.558 | 0.584 | 0.613 | 0.492 | 0.265 | 0.313 | 0.25 | 0.273 | 0.245 | 0.822 | 0.625 | 0.517 | 0.186 | 0.188 |
| HCC-15 | 0.482 | 0.475 | 0.462 | 0.287 | 0.269 | 0.768 | 0.652 | 0.725 | 0.598 | 0.627 | 0.798 | 0.684 | 0.803 | 0.709 | 0.594 | 0.763 | 0.764 | 0.851 | 0.733 | 0.689 |
| HCC-44 | 0.202 | 0.283 | 0.179 | 0.139 | 0.113 | 0.981 | 0.835 | 1.01 | 0.992 | 0.963 | 0.978 | 0.912 | 0.959 | 0.944 | 0.96 | 1.03 | 0.958 | 1.11 | 1.13 | 0.986 |
| HCC-78 | 0.436 | 0.581 | 0.581 | 0.465 | 0.245 | 0.691 | 0.737 | 0.664 | 0.613 | 0.61 | 0.45 | 0.459 | 0.448 | 0.438 | 0.483 | 0.596 | 0.649 | 0.639 | 0.577 | 0.243 |
| HCC-366 | 0.606 | 0.571 | 0.484 | 0.426 | 0.336 | 0.332 | 0.34 | 0.33 | 0.341 | 0.378 | 0.466 | 0.362 | 0.473 | 0.407 | 0.403 | 0.263 | 0.206 | 0.217 | 0.157 | 0.141 |
| HCC-827 | 0.411 | 0.362 | 0.328 | 0.293 | 0.104 | 0.317 | 0.365 | 0.281 | 0.719 | 0.343 | 0.512 | 0.462 | 0.439 | 0.459 | 0.377 | 0.595 | 0.577 | 0.535 | 0.209 | 0.106 |
| HOP-62 | 0.687 | 0.608 | 0.704 | 0.569 | 0.281 | 0.233 | 0.204 | 0.195 | 0.203 | 0.199 | 0.464 | 0.485 | 0.448 | 0.413 | 0.348 | 0.32 | 0.381 | 0.307 | 0.434 | 0.204 |
| IA-LM |  |  |  |  |  |  |  |  |  |  |  |  |  |  |  | 1.06 | 0.537 | 0.904 | 0.706 | 0.6 |
| LC-2-ad | 0.636 | 0.623 | 0.411 | 0.306 | 0.265 | 0.797 | 0.728 | 0.828 | 0.79 | 0.712 | 0.504 | 0.477 | 0.538 | 0.486 | 0.47 | 0.752 | 0.666 | 0.746 | 0.573 | 0.516 |
| LCLC-97TM1 | 0.451 | 0.439 | 0.45 | 0.449 | 0.168 | 0.241 | 0.23 | 0.202 | 0.168 | 0.195 | 0.217 | 0.284 | 0.229 | 0.219 | 0.182 | 0.468 | 0.449 | 0.557 | 0.393 | 0.4 |
| LCLC-103H | 0.367 | 0.3 | 0.267 | 0.298 | 0.127 | 0.712 | 0.748 | 0.765 | 0.719 | 0.756 | 0.485 | 0.44 | 0.466 | 0.477 | 0.481 | 0.74 | 0.716 | 0.718 | 0.508 | 0.356 |
| NCI-H596 | 0.728 | 0.52 | 0.712 | 0.44 | 0.402 | 0.934 | 1.02 | 1 | 1.03 | 1.29 |  |  |  |  |  | 0.685 | 0.575 | 0.525 | 0.517 | 0.466 |
| NCI-H1299 |  |  |  |  |  |  |  |  |  |  |  |  |  |  |  | 0.959 | 0.983 | 0.998 | 0.639 | 0.297 |
| NCI-H1563 | 0.67 | 0.573 | 0.595 | 0.636 | 0.517 |  |  |  |  |  |  |  |  |  |  |  |  |  |  |  |
| NCI-H1623 | 0.568 | 0.564 | 0.526 | 0.413 | 0.349 |  |  |  |  |  |  |  |  |  |  |  |  |  |  |  |
| NCI-H1648 |  |  |  |  |  | 0.507 |  | 0.515 | 0.475 | 0.579 | 0.309 |  | 0.273 | 0.275 | 0.235 | 0.73 | 0.612 | 0.855 | 0.314 | 0.221 |
| NCI-H1703 |  |  |  |  |  |  |  |  |  |  |  |  |  |  |  | 0.287 | 0.25 | 0.144 | 0.147 | 0.148 |
| NCI-H2228 | 0.354 | 0.298 | 0.28 | 0.242 | 0.218 |  |  |  |  |  | 1.03 | 0.779 | 0.724 | 0.709 | 0.818 | 0.847 | 0.647 | 0.714 | 0.464 | 0.273 |
